# Like-named read-outs stand apart in the source and are kept apart here.
# Columns and labels:
# Format in all cases: in vivo
# [1] = test system: bronchospasms elicited by intravenous injections of 5-hydroxytryptamine, histamine or acetylcholine; assay: Bronchodilator activity in guinea pigs by the Konzett procedure; details: Cavia porcellus, guinea pig, three logarithmic cumulative intravenous doses
# Protocol: The compounds of this invention are useful as bronchodilators for the treatment of asthma and chronic bronchitis. Bronchodilator activity is determined in guinea pigs against bronchospasms elicited by intravenous injections of 5-hydroxytryptamine, histamine or acetylcholine by the Konzett procedure. [See J. Lulling, P. Lievens, F. El Sayed and J. Pringnot, Arzneimittel-Forschung, 18, 955 (1968).].
# In Table which follows bronchodilator activity for representative compounds of this invention against one or more of three spasmogenic agents is expressed as an ED50 determined from the results obtained with three logarithmic cummulative intravenous doses. In this assay, these compounds of this invention provide an effect of longer duration than does natural 1-PGE1 or 1-PGE2.
# [2] = test system: histamine-stimulated gastric acid secretion; assay: Gastric acid secretion in the dog, gastric fistula; details: 5 μg/Kg by stomach tube, i.v. histamine 40 μg/kg/hr
# Protocol: (§1) Experiments are carried out on six fasted female mongrel dogs, 3-7 years of age. Each had been provided with either a gastric fistula (4 dogs) or a Heidenhain pouch (2 dogs) using standard surgical techniques. Briefly, spool shaped cannulae of stainless steel (gastric fistual preparation) or titanium (Heidenhain pouch preparation) were inserted into narrow slits in the most dependent portion of the vertical stomach and retained in place by a purse-string suture. In the Heidenhain pouch preparation the slit made in a denervated sleeve of stomach which was isolated along the greater curvature. The cannulae were exteriorized through a trocar wound in the abdomen just left of midline and, as the purse string was tightened about the cannulae, the edges of the wound were inverted.
# The drug is administered at zero time through the smaller lumen of a double lumen Salen Sump Tube which has been placed transorally into the animal's stomach. The length is adjusted to reach from the mouth just to the cannula site. Five ml of saline are then flushed through the smaller lumen, followed by 5 ml of air. Immediately following 20-25 ml of saline are placed into the stomach through the larger lumen of the double lumen tube and the tube withdrawn.
# Thirty minutes after the drug is administered the gastric annula is opened, irrigated rapidly with 25-30 ml of saline 4 separate times and allowed to drain for 15 minutes.
# At the end of the drainage period, the intravenous histamine infusion is started ([…]) and the first 15 minutes collection period of gastric secretions via the cannula is begun. The collection is changed every 15 minutes. The volume of each 15 minute sample is measured and an aliquot titrated to pH 7 with 0.1 N NaOH using a Radiometer automatic titrator.
# ^1 Secretion is stimulated with intravenous histamine, 40 μg/kg/hr
# g/Kg) 45 minutes after administration of compound (5μg/Kg)? or vehicle
# (control) by stomach tube. Secretions are collected from fistula annula.
# [3] = test system: histamine-stimulated gastric acid secretion; assay: Gastric acid secretion in the dog, Heidenhain pouch; details: 5 μg/kg by stomach tube, i.v. histamine 40 μg/kg/hr
# Protocol: as §1
# The intravenous histamine infusion ([…]) is started. At the same time, the first gastric secretion collection is begun. these secretions are collected by gravity drainage through the Heidenhain pouch cannula. Separate gastric samples are collected every fifteen minutes. When the volumes of two successive samples are within 10% of each other (usually occuring by the end of the fourth period--after one hour of histamine infusion) the drug is given to the animal (time 0). The latter of the two samples is considered to be the control for that particular experiment. The drug is administered through the smaller lumen of a double lumen Salem Sump Tube which has been cut to a length equal to the mouth to stomach distance of the dog. Following administration of the drug, the narrow lumen is flushed first with […], followed by 5 ml of air. Twenty-five to 30 ml of saline is then introduced into the stomach through the larger lumen and the tube withdrawn. (Note: Samples of gastric juice are taken from the pouch, drug is administered into the main stomach). Aliquots of each 15 minute gastric sample are titrated to pH 7 with 0.1 N NaOH using a Radiometer automatic titrator.
# ^2 Secretion is stimulated with intravenous histamine, 40 μg/kg/hr
# and samples are collected through the pouch cannula at 15 minute
# intervals. When the volume of two successive samples are within 10% of
# each other, compound is administered (5 μg/kg) by stomach tube. The en
# of the latter two periods is considered as 0 time (control).
# [4] = bronchospasm by 5-hydroxytryptamine, read-out: ED50 5HT
# [5] = bronchospasm by histamine, read-out: ED50 HIST.
# [6] = bronchospasm by acetylcholine, read-out: ED50 ACH
compound,measurement,setting,value
"CCCCCC(C)(O)/C=C/[C@H]1[C@H](O)CC(=O)[C@@H]1CCCCCCC(=O)C(=O)OCC (relative stereo) [dl-1,9-dioxo-1-carbethoxy-11α,15-dihydroxy-15-methyl-13-trans-prostene]",ED50,[1]; [4],4.22 µg/kg
same,ED50,[1]; [5],6.05 µg/kg
"CCCCC(C)(O)C/C=C/[C@H]1[C@H](O)CC(=O)[C@@H]1CCCCCCC(=O)C(=O)OCC (relative stereo) [dl-1,9-dioxo-1-carbethoxy-11,16-dihydroxy-16-methyl-13-trans-prostene]","% INHIBITION ACID SECRETION, 45-60 minutes after compound",[2],97%
same,"% INHIBITION ACID SECRETION, 60-75 minutes after compound",[2],91%
same,"% INHIBITION ACID SECRETION, 75-90 minutes after compound",[2],76%
same,"% INHIBITION ACID SECRETION, 90-105 minutes after compound",[2],72%
same,"% INHIBITION ACID SECRETION, 105-120 minutes after compound",[2],56%
same,"% INHIBITION ACID SECRETION, 0-15 minutes after compound",[3]; 0-15 min,20%
same,"% INHIBITION ACID SECRETION, 15-30 minutes after compound",[3]; 15-30 min,28%
same,"% INHIBITION ACID SECRETION, 30-45 minutes after compound",[3]; 30-45 min,34%
same,"% INHIBITION ACID SECRETION, 45-60 minutes after compound",[3]; 45-60 min,21%
same,"% INHIBITION ACID SECRETION, 60-75 minutes after compound",[3]; 60-75 min,12%
"CCCCC(C)(O)C/C=C/[C@H]1[C@H](O)CC(=O)[C@@H]1C/C=C\CCCC(=O)C(=O)OCC (relative stereo) [dl-1,9-Dioxo-1-carbethoxy-11α,16-dihydroxy-16-methyl-5-cis-13-trans-prostadiene]","% INHIBITION ACID SECRETION, 45-60 minutes after compound",[2],96%
same,"% INHIBITION ACID SECRETION, 60-75 minutes after compound",[2],62%
same,"% INHIBITION ACID SECRETION, 75-90 minutes after compound",[2],59%
same,"% INHIBITION ACID SECRETION, 90-105 minutes after compound",[2],56%
same,"% INHIBITION ACID SECRETION, 105-120 minutes after compound",[2],47%
same,ED50,[1]; [4],9.51 µg/kg
same,ED50,[1]; [6],5.92 µg/kg
same,ED50,[1]; [5],9.31 µg/kg
"C=CC(O)(C/C=C/[C@H]1[C@H](O)CC(=O)[C@@H]1C/C=C\CCCC(=O)C(=O)OCC)CCCC (relative stereo) [dl-1,9-Dioxo-1-carbethoxy-11α,16-dihydroxy-16-vinyl-5-cis-13-trans-prostadiene]",ED50,[1]; [4],0.665 µg/kg
same,ED50,[1]; [6],3.41 µg/kg
same,ED50,[1]; [5],2.26 µg/kg

# Source: patent publication US4250321A, “1-Descarboxy-1-ketoester(ketoacid)-protaglandins” (American Cyanamid Company, priority 1979, dated 1981)
